Test results from patent US20200208128A1, “METHODS OF TREATING LIVER DISEASES” (CAMP4 THERAPEUTICS CORPORATION, priority 2017, published 2020).
“Also recorded” adds a separate entry of the source.

Columns and labels:
[1] = tested on: PNPLA3; assay: qRT-PCR validation of PNPLA3 expression in primary human hepatocytes; type: cell-based
Experimental: Cryopreserved hepatocytes were cultured in plating media for 16 hours, transferred to maintenance media for 4 hours. Cultured on serum-free media for 2 hours, then a compound was added. The hepatocytes were maintained on the serum-free media for 16 hours prior to gene expression analysis. Primary Human Hepatocytes were stored in the vapor phase of a liquid nitrogen freezer (about −130° C.).
(§5) Human hepatocytes cultured as described above were plated in 24-well format, adding 375,000 cells per well in a volume of 500 ul plating medium. Four hours before treatment, cells were washed with PBS and the medium was changed to either: fresh maintenance medium (complete) or modified maintenance medium.
Compound stocks were prepared at 1000× final concentration and added in a 2-step dilution to the medium to reduce risk of a compound precipitating out of solution when added to the cells, and to ensure reasonable pipetting volumes. One at a time, each compound was first diluted 10-fold in warm (about 37° C.) modified maintenance medium (initial dilution=ID), mixed by vortexing, and the ID was diluted 100-fold into the cell culture (e.g. 5.1 μl into 1 well of a 24-well plate containing 0.5 mL medium). The plate was mixed by carefully swirling and after all wells were treated and returned to the incubator overnight. If desired, separate plates/wells were treated with vehicle-only controls and/or positive controls. If using multi-well plates, controls were included on each plate.
Samples were amplified using the following Taqman probes from ThermoFisher for each target: Hs01552217_m1 (human PNPLA3).
Analysis of the fold changes in expression as measured by qRT-PCR were performed using the technique below. The control was DMSO, and the treatment was the selected compound (CPD). The internal control was GAPDH or B-Actin (or otherwise indicated), and the gene of interest is the target. First, the averages of the 4 conditions were calculated for normalization: DMSO:GAPDH, DMSO:Target, CPD: GAPDH, and CPD:Target. Next, the ΔCT of both control and treatment were calculated to normalize to internal control (GAPDH) using (DMSO:Target)−(DMSO:GAPDH)=ΔCT control and (CPD:Target)−(CPD: GAPDH)=ΔCT experimental. Then, the ΔΔCT was calculated by ΔCT experimental−ΔCT control. The Expression Fold Change (or Relative Quantification, abbreviated as RQ) was calculated by 2−(ΔΔCT) (2-fold expression change was shown by RNA-Seq results provided herein).
Candidate compounds were subjected to validation with qRT-PCR in human hepatocytes. qRT-PCR was performed on samples of primary human hepatocytes from a second donor treated with the candidate compounds. Compounds were tested at concentrations ranging from 0.01 μM to 50 μM, with the majority tested at 10 μM.

[2] = tested on: PNPLA3; assay: qRT-PCR of PNPLA3 mRNA in hepatic stellate cells; type: cell-based, human; conditions: for Effect on PNPLA3 mRNA levels in stellate cells: serial dilutions; for Relative PNPLA3 mRNA levels RQ: fold change vs DMSO
Experimental: (§1) Human Primary Stellate cells (HSC) (ScienceCell Cat #5300) were originally isolated from the liver of a donor. Cells were plated in Stellate Cell Medium (SteCM) (ScienCell Cat #5301) on black clear bottom plates (GREINER BIO-ONE:82050-730) coated with 2 μg/cm^2 PolyLLysine (PLL) (ScienceCell Cat #0413). Cells were plated at a density of 17000 cells/well in a 96-well plate and allowed to adhere overnight. The following day cell culture media was replenished with the indicated concentration(s) of compound for 18 hours. […] Medium was removed after 18 hours and cells were processed for further analysis, e.g. qRT-PCR.
(§2) In some examples, RQ Min and RQ Max values are also reported. RQ Min and RQ Max are the minimum and maximum relative levels of gene expression in the test samples, respectively. They were calculated using the confidence level set in the analysis settings and the confidence level was set to one standard deviation (SD). These values were calculated using standard deviation as follows: […].
Candidate compounds were tested in stellate cells for their ability to modulate PNPLA3 and COL1A1. Stellate cells were treated with serial dilutions of the compounds, ranging from 0.1 μM to 100 μM. Changes in PNPLA3 (or COL1A1) mRNA levels in stellate cells were analyzed with qRT-PCR. Once compounds capable of downregulating PNPLA3 and/or COL1A1 were identified, additional compounds that are known to act in the same pathways were also tested. Transforming growth factor beta (TGF-beta) is known to induce fibrotic genes including COL1A1 in vitro, and was thus chosen as a positive control (i.e., positively regulate COL1A1 expression).

[3] = tested on: COL1A1; assay: qRT-PCR of COL1A1 mRNA in hepatic stellate cells; type: cell-based, human; conditions: for Relative COLIA1 mRNA levels RQ: four technical replicates; for Effect on COL1A1 expression in stellate cells: serial dilutions; for Relative COL1A1 mRNA levels RQ: fold change vs DMSO
Experimental: as §1, §2
Candidate compounds were tested in stellate cells for their ability to modulate PNPLA3 and COL1A1. […] Changes in PNPLA3 (or COL1A1) mRNA levels in stellate cells were analyzed with qRT-PCR. Once compounds capable of downregulating PNPLA3 and/or COL1A1 were identified, additional compounds that are known to act in the same pathways were also tested. Transforming growth factor beta (TGF-beta) is known to induce fibrotic genes including COL1A1 in vitro, and was thus chosen as a positive control (i.e., positively regulate COL1A1 expression).

[4] = tested on: PNPLA3; assay: RNA-seq of compound-treated primary human hepatocytes: PNPLA3 expression; type: cell-based
Experimental: (§6) Cryopreserved hepatocytes were cultured in plating media for 16 hours, transferred to maintenance media for 4 hours. Cultured on serum-free media for 2 hours, then a compound was added. The hepatocytes were maintained on the serum-free media for 16 hours prior to gene expression analysis.
as §5
Compound stocks were prepared at 1000× final concentration and added in a 2-step dilution to the medium to reduce risk of a compound precipitating out of solution when added to the cells, and to ensure reasonable pipetting volumes. One at a time, each compound was first diluted 10-fold in warm (about 37° C.) modified maintenance medium (initial dilution=ID), mixed by vortexing, and the ID was diluted 100-fold into the cell culture (e.g. 5.1 μl into 1 well of a 24-well plate containing 0.5 mL medium). The plate was mixed by carefully swirling and after all wells were treated and returned to the incubator overnight. If desired, separate plates/wells were treated with vehicle-only controls and/or positive controls. If using multi-well plates, controls were included on each plate. After about 18 hours, cells were harvested for further analysis, e.g., ChIP-seq, RNA-seq, ATAC-seq, etc.
The expression level of each gene was quantified with normalized FPKM (fragments per kilobase of exon per million mapped fragments). The differentially expressed genes were called using Cuffdiff v2.2.1 with q value <0.01 and log 2fold change >=1 or <=−1.
RNA-seq was performed to determine the effects of the compounds on PNPLA3 expression in hepatocytes. Fold change was calculated by dividing the level of expression in the cell system that had been perturbed by the level of expression in an unperturbed system. Changes in expression having a p-value ≤0.05 were considered significant.

[5] = target: stem cell growth factor receptor (SCFR or c-Kit) (Homo sapiens, UniProt P10721); conditions: cited from earlier work
[6] = target: Platelet-derived growth factor receptor alpha (PDGFRα) (Homo sapiens, UniProt P16234); conditions: cited from earlier work
[7] = target: T1, FLT3 (Homo sapiens, UniProt P36888); conditions: cited from earlier work
T1 construct: IC50; other: FLT3
T1 sequence (P36888 1-993 D835Y): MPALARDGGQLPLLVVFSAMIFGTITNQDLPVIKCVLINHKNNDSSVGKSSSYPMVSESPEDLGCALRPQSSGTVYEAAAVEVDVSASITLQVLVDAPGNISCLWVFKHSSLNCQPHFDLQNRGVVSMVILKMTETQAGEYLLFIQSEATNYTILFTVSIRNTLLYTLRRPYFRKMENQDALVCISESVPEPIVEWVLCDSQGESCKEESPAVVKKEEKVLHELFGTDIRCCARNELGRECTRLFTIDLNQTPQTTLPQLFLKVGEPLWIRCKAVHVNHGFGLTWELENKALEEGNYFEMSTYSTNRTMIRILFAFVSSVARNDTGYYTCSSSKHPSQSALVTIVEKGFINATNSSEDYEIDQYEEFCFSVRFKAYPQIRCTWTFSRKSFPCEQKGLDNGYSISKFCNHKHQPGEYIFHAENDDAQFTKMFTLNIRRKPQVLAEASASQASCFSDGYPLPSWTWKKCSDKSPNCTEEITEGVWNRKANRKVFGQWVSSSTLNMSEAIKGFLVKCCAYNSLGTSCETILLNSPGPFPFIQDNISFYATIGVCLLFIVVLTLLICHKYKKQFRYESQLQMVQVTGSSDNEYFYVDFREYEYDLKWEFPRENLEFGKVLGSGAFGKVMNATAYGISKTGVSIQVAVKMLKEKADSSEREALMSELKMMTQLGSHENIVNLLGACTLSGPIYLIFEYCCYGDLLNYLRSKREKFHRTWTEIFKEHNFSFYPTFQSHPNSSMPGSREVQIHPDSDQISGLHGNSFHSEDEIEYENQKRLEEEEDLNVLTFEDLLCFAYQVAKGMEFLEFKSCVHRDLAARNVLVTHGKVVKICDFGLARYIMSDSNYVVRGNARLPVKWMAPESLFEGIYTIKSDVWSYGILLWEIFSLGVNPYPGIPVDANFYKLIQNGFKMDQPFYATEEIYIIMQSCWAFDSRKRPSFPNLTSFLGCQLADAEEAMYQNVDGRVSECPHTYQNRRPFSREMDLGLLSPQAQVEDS

[8] = tested on: PNPLA3 (I148M mutation), HepG2 cells; assay: qRT-PCR of mutant PNPLA3 expression in HepG2 cells; type: cell-based
Experimental: HepG2 cells were plated in 24 well format at 100,000 cells per well in 500 μl DMEM. […] The following morning, the cells were harvested for RNA extraction.
Candidate compounds were evaluated in a PNPLA3 mutant cell line HepG2 to test their effects on mutant PNPLA3 expression. The HepG2 cells have the I148M mutation in PNPLA3. Changes in PNPLA3 expression in HepG2 cells were analyzed with qRT-PCR. PNPLA3 mRNA levels were normalized to the geometric mean of two internal controls, GUSB and B2M.

[9] = tested on: PNPLA3; assay: In vivo compound testing in mice: PNPLA3 expression in liver (qRT-PCR); parameters: species or system mouse; conditions: wild-type mice, 50 mg/kg once daily oral gavage, four days
Experimental: (§3) A group of 6 mice (C57BL/6J strain), 3 male and 3 female, were administered with a candidate compound once daily via oral gavage for four consecutive days. Mice were sacrificed 4 hours post-last dose on the fourth day. Organs including liver, spleen, kidney, adipose, plasma were collected. Mouse liver tissues were pulverized in liquid nitrogen and aliquoted into small microtubes. TRIzol (Invitrogen Cat #15596026) was added to the tubes to facilitate cell lysis from tissue samples. The TRIzol solution containing the disrupted tissue was then centrifuged and the supernatant phase was collected. Total RNA was extracted from the supernatant using Qiagen RNA Extraction Kit (Qiagen Cat #74182) and the target mRNA levels were analyzed using qRT-PCR.
(§4) Candidate compounds were administered at an appropriate dose once daily to a group of wild-type mice consisting of 3 male and 3 female mice. Mice were sacrificed on the fourth day and liver tissue was collected and analyzed for PNPLA3 (or COL1A1) expression by qRT-PCR. […] When COL1A1 was analyzed, a stellate cell specific gene GFAP was used as a house-keeping control.

[10] = In vivo compound testing in mice: body weight, organ weight, other liver genes; parameters: species or system mouse; conditions: 50 mg/kg once daily, four days
Experimental: as §3, §4

[11] = tested on: JNK; conditions: cited from earlier work
[12] = tested on: PNPLA3; assay: qRT-PCR of PNPLA3 expression in mouse hepatocytes; type: cell-based
Experimental: Analysis of the fold changes in expression as measured by qRT-PCR were performed using the technique below. The control was DMSO, and the treatment was the selected compound (CPD). The internal control was GAPDH or B-Actin (or otherwise indicated), and the gene of interest is the target. First, the averages of the 4 conditions were calculated for normalization: DMSO:GAPDH, DMSO:Target, CPD: GAPDH, and CPD:Target. Next, the ΔCT of both control and treatment were calculated to normalize to internal control (GAPDH) using (DMSO:Target)−(DMSO:GAPDH)=ΔCT control and (CPD:Target)−(CPD: GAPDH)=ΔCT experimental. Then, the ΔΔCT was calculated by ΔCT experimental−ΔCT control.
Compounds were tested at concentrations ranging from 0.01 μM to 50 μM. […] PNPLA3 levels were normalized to the level of a house keeping gene ACTB.

[13] = tested on: COL1A1; assay: In vivo compound testing in mice: COL1A1 expression in liver (qRT-PCR); parameters: species or system mouse; conditions: wild-type mice, 50 mg/kg once daily oral gavage, four days, GFAP as house-keeping control
Experimental: as §3, §4

[14] = tested on: PNPLA5; assay: RNA-seq of compound-treated primary human hepatocytes: PNPLA5 expression; type: cell-based
Experimental: as §6, §5
Compound stocks were prepared at 1000× final concentration and added in a 2-step dilution to the medium to reduce risk of a compound precipitating out of solution when added to the cells, and to ensure reasonable pipetting volumes. One at a time, each compound was first diluted 10-fold in warm (about 37° C.) modified maintenance medium (initial dilution=ID), mixed by vortexing, and the ID was diluted 100-fold into the cell culture (e.g. 5.1 μl into 1 well of a 24-well plate containing 0.5 mL medium). […]
The expression level of each gene was quantified with normalized FPKM (fragments per kilobase of exon per million mapped fragments). […]
Fold change was calculated by dividing the level of expression in the cell system that had been perturbed by the level of expression in an unperturbed system. […]

Chain of stem cell growth factor receptor (SCFR or c-Kit) (P10721 whole entry D816H, form open): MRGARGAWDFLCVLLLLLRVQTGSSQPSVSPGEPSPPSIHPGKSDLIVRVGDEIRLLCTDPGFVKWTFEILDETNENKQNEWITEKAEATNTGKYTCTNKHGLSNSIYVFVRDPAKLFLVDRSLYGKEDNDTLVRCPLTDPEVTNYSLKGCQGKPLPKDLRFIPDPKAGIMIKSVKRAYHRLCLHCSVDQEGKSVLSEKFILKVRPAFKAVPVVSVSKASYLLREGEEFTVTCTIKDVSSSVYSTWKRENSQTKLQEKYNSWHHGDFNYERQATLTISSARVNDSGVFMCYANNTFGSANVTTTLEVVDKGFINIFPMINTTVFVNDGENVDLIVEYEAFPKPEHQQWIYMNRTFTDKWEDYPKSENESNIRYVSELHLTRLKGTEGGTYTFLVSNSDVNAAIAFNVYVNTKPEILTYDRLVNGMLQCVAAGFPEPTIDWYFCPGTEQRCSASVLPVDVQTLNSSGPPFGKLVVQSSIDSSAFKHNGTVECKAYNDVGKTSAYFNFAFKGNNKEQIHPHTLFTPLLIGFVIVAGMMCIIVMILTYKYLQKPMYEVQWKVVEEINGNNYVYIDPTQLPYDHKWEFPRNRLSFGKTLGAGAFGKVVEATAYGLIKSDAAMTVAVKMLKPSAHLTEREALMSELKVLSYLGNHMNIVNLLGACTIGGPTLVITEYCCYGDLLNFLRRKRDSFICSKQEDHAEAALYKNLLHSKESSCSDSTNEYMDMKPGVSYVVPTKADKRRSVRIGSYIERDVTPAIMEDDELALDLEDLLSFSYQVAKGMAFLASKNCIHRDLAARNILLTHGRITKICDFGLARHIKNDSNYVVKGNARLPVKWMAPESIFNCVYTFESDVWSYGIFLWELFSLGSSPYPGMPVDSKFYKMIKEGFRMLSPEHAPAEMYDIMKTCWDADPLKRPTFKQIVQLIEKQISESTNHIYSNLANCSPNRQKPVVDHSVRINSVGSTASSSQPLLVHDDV
Chain of Platelet-derived growth factor receptor alpha (PDGFRα) (P16234 593-954 limits assumed): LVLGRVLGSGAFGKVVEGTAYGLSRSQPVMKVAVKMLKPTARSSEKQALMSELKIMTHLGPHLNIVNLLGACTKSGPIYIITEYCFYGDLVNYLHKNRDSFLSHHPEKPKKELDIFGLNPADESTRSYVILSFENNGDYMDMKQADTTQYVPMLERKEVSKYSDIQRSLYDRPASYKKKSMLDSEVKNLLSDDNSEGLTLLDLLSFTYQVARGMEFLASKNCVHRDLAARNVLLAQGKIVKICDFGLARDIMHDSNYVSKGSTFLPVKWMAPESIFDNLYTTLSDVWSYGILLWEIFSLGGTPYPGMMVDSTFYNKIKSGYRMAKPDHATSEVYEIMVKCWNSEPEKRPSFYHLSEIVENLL

Cc1cc(Nc2nc(N[C@@H](C)c3ncc(F)cn3)ncc2Cl)[nH]n1 [AZD1480]
Effect on PNPLA3 expression in human hepatocytes [1]: efficient downregulation

CN1CCN(S(=O)(=O)c2ccc(-c3cnc(N)c(C(=O)Nc4cccnc4)n3)cc2)CC1 [AZD2858]
Effect on PNPLA3 mRNA levels in stellate cells [2]: modestly decreased both PNPLA3 and COL1A1 in a dose dependent manner | Relative COLIA1 mRNA levels RQ ([3]; 1 μM): 0.83 | Relative COLIA1 mRNA levels RQ ([3]; 10 μM): 0.72 | Effect on COL1A1 expression in stellate cells [3]: modestly decreased both PNPLA3 and COL1A1 in a dose dependent manner

S=C(NCc1ccc2c(c1)OCO2)N1CCN(c2ncnc3c2oc2ccccc23)CC1 [Amuvatinib]
PNPLA3 expression, Fold change (Log 2) vs untreated [4]: −0.52 Log 2 | IC50 [5]: 10 nM | IC50 [6]: 40 nM | IC50 [7]: 81 nM

O=C1Nc2cc(Br)ccc2/C1=C1/Nc2ccccc2/C1=N\O [BIO]
Effect on PNPLA3 mRNA levels in stellate cells [2]: modestly decreased both PNPLA3 and COL1A1 in a dose dependent manner | Relative COLIA1 mRNA levels RQ ([3]; 1 μM): 0.74 | Relative COLIA1 mRNA levels RQ ([3]; 10 μM): 0.59 | Effect on COL1A1 expression in stellate cells [3]: modestly decreased both PNPLA3 and COL1A1 in a dose dependent manner

COc1nc(N)nc2c1ncn2[C@@H]1O[C@H](COP(=O)(N[C@@H](C)C(=O)OCC(C)(C)C)Oc2cccc3ccccc23)[C@@H](O)[C@@]1(C)O (stereo partly shown) [BMS-986094]
PNPLA3 expression, Fold change (Log 2) vs untreated [4]: −0.69 Log 2

N#CCNC(=O)c1ccc(-c2ccnc(Nc3ccc(N4CCOCC4)cc3)n2)cc1 [Momelotinib, N-(cyanomethyl)-4-{2-[4-(morpholin-4-yl)anilino]pyrimidin-4-yl}benzamide]
Effect on PNPLA3 expression in human hepatocytes [1]: substantial decrease; also recorded: dose-dependent response | Effect on PNPLA3 mRNA levels in stellate cells [2]: reduced PNPLA3 mRNA levels in stellate cells in a dose-dependent manner | Effect on COL1A1 expression in stellate cells [3]: did not alter COL1A1 expression | Response of mutant PNPLA3 mRNA levels in HepG2 cells [8]: dose-dependent manner | PNPLA3 expression in mouse liver [9]: reduced PNPLA3 significantly | Animal body weight, organ weight, other liver genes such as albumin, ASGR1, HAMP1 [10]: No change was observed | IC50 [11]: < 100 nM

CNS(=O)(=O)C[C@H]1CC[C@H](N(C)c2ncnc3[nH]ccc23)CC1 [Oclacitinib]
Effect on PNPLA3 expression in human hepatocytes [1]: efficient downregulation

COc1ccc(-c2cc3c(C)nc(N)nc3n([C@H]3CC[C@H](OCCO)CC3)c2=O)cn1 [PF-04691502]
Relative PNPLA3 mRNA levels ([12]; 1 μM): 0.21 ± 0.10

C1=C/COCc2cc(ccc2OCCN2CCCC2)Nc2nccc(n2)-c2cccc(c2)COC/1 [Pacritinib]
Effect on PNPLA3 expression in human hepatocytes [1]: substantial decrease

NS(=O)(=O)C#Cc1ccccc1 [Pifithrin-μ, 2-Phenylethynesulfonamide]
PNPLA3 expression, Fold change (Log 2) vs untreated [4]: −0.68 Log 2

CCC(=O)N1CCN(c2ccc(-n3c(=O)ccc4cnc5ccc(-c6cnc7ccccc7c6)cc5c43)cc2C(F)(F)F)CC1 [Torin 1]
Relative PNPLA3 mRNA levels ([12]; 10 μM): 0.53 ± 0.25 | Relative PNPLA3 mRNA levels RQ ([2]; compound 0.01 μM): 0.34 | Relative PNPLA3 mRNA levels RQ ([2]; compound 0.1 μM): 0.65 | Relative PNPLA3 mRNA levels RQ ([2]; compound 1 μM): 0.99 | Relative PNPLA3 mRNA levels RQ ([2]; compound 10 μM): 2.39 | Relative COL1A1 mRNA levels RQ ([3]; compound 0.01 μM): 0.29 | Relative COL1A1 mRNA levels RQ ([3]; compound 0.1 μM): 0.41 | Relative COL1A1 mRNA levels RQ ([3]; compound 1 μM): 0.43 | Relative COL1A1 mRNA levels RQ ([3]; compound 10 μM): 0.36

CNC(=O)Nc1ccc(-c2nc(N3CC4CCC(C3)O4)c3cnn(C4CCC5(CC4)OCCO5)c3n2)cc1 [WYE-125132]
PNPLA3 expression, Fold change (Log 2) vs untreated [4]: −0.86 Log 2 | Effect on PNPLA3 mRNA levels in stellate cells [2]: decreased both PNPLA3 and COL1A1 in HSCs in a dose-dependent manner | Effect on COL1A1 expression in stellate cells [3]: decreased both PNPLA3 and COL1A1 in HSCs in a dose-dependent manner | COL1A1 expression in mouse liver [13]: reduced COL1A1 expression

CN1C(=O)c2sccc2N(C)c2nc(Nc3ccc(S(N)(=O)=O)cc3)ncc21 [XMU-MP-1]
PNPLA3 expression, Fold change (Log 2) vs untreated [4]: −0.66 Log 2

Activin
Upregulation of PNPLA3 in the RNA-seq study [4]: best upregulators | Upregulation of PNPLA5 in the RNA-seq study [14]: best upregulators

B1: GDF2 (BMP9) (protein, UniProt Q9UK05 320-429, looked up)
Growth/differentiation factor …: SAGAGSHCQKTSLRVNFEDIGWDSWIIAPKEYEAYECKGGCFFPLADDVTPTKHAIVQTLVHLKFPTKVGKACCVPTKLSPISVLYKDDMGVPTLKYHYEGMSVAECGCR
Upregulation of PNPLA3 in the RNA-seq study [4]: best upregulators | Upregulation of PNPLA5 in the RNA-seq study [14]: best upregulators
